Patent publication US9708336B2, “Metallo-beta-lactamase inhibitors” (priority 2014, dated 2017)
Like-named read-outs stand apart in the source and are kept apart here.

Key:
NDM-1 = NDM-1 (Klebsiella pneumoniae, UniProt C7C422); experiment: biochemical; type: biochemical; settings: NDM-1 enzyme, CCF2-FA fluorescence assay; read-out: NDM-1 IC50
IMP-1 = IMP-1 (Serratia marcescens, UniProt P52699); experiment: biochemical; type: biochemical; settings: IMP-1 enzyme, CCF2-FA fluorescence assay; read-out: IMP-1 IC50
VIM-1 = VIM-1 (Pseudomonas aeruginosa (strain ATCC 15692 / DSM 22644 / CIP 104116 / JCM 14847 / LMG 12228 / 1C / PRS 101 / PAO1), UniProt A0A0F7KYQ8); experiment: Enzyme activity: determination of IC50, fluorescence assay with CCF2-FA substrate (VIM-1); type: biochemical; settings: CCF2-FA fluorescence assay
[1] = system: Escherichia coli expressing NDM-1 (CLB30016); experiment: Antibiotic potentiation activity: synergistic concentration (MITC95) with imipenem, OD600 growth; type: cell-based; settings: Escherichia coli expressing NDM-1 (CLB30016), 95% growth inhibition
In short: (§1)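 Spectrophotometric growth readings were taken following 22–24 h at 35 °C. Before that, organisms in 1.1× CAMHB were mixed with imipenem, used at 4 μg/ml in assay, and test compound.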

[2] = system: Klebsiella pneumoniae expressing VIM-1 (IHMA599644); experiment: as above; type: cell-based; settings: Klebsiella pneumoniae expressing VIM-1 (IHMA599644), 95% growth inhibition
In short: as §1

[3] = system: Serratia marcescens expressing IMP-1 (CL5741); experiment: as above; type: cell-based; settings: Serratia marcescens expressing IMP-1 (CL5741), 95% growth inhibition
In short: as §1

[4] = VIM-1 enzyme, read-out: VIM-1 IC50

Sequence of IMP-1 (P52699 whole entry, looked up): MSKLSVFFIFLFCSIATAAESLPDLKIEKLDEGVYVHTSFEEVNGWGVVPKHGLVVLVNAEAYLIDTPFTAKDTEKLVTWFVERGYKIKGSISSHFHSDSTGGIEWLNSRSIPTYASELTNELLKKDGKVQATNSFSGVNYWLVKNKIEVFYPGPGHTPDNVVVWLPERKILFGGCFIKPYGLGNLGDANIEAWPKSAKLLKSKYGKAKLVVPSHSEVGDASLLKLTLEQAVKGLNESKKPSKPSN
Sequence of NDM-1 (C7C422 whole entry, looked up, species assumed): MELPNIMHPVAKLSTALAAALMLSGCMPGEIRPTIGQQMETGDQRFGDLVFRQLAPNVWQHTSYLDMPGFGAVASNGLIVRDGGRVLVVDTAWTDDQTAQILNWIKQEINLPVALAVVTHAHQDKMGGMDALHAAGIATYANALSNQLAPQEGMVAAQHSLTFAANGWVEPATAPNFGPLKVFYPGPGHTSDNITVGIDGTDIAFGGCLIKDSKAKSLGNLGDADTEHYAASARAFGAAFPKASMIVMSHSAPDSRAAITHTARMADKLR

SMILES	IC50 (NDM-1) [nM]	IC50 (IMP-1) [nM]	IC50 (VIM-1; [4]) [nM]	Escherichia coli MITC95 [1] [µM]	Klebsiella pneumoniae MITC95 [2] [µM]	Serratia marcescens MITC95 [3] [µM]	IC50 (VIM-1; VIM-1 IC50, VIM-1 enzyme) [nM]
NS(=O)(=O)c1cccc(-c2ccc(CNC3CCN(C4CCCC4)CC3)cc2)c1-c1nnn[nH]1 [Example 379, 4′-{[(1-cyclopentylpiperidin-4-yl)amino]methyl}-2-(1H-tetrazol-5-yl)biphenyl-3-sulfonamide]	27.3	318	639	1.563	200	4.688	–
NS(=O)(=O)c1cccc(-c2ccc(CNCC3(O)CC3)cc2)c1-c1nnn[nH]1 [Example 380, 4′-({[(1-hydroxycyclopropyl)methyl]amino}methyl)-2-(1H-tetrazol-5-yl)biphenyl-3-sulfonamide]	22.2	335	–	1.563	62.5	4.688	263
NS(=O)(=O)c1cccc(-c2ccc(CNCc3nn[nH]n3)cc2)c1-c1nnn[nH]1 [Example 381, 2-(1H-tetrazol-5-yl)-4′-{[(2H-tetrazol-5-ylmethyl)amino]methyl}biphenyl-3-sulfonamide]	2.25	25.4	357	1.563	50	0.7813	–
NS(=O)(=O)c1cccc(-c2ccc(CNCCc3ncc[nH]3)cc2)c1-c1nnn[nH]1 [Example 382, 4′-({[2-(1H-imidazol-2-yl)ethyl]amino}methyl)-2-(1H-tetrazol-5-yl)biphenyl-3-sulfonamide]	12.8	212	220	1.563	50	3.125	–
NS(=O)(=O)c1cccc(-c2ccc(CNCCn3nccn3)cc2)c1-c1nnn[nH]1 [Example 383, 2-(1H-tetrazol-5-yl)-4′-({[2-(2H-1,2,3-triazol-2-yl)ethyl]amino}methyl)biphenyl-3-sulfonamide]	4.66	51.6	269	1.563	200	1.563	–
NS(=O)(=O)c1cccc(-c2ccc(CNCCc3c[nH]cn3)cc2)c1-c1nnn[nH]1 [Example 384, 4′-({[2-(1H-imidazol-4-yl)ethyl]amino}methyl)-2-(1H-tetrazol-5-yl)biphenyl-3-sulfonamide]	13.6	293	225	1.953	50	4.688	–
NS(=O)(=O)c1cccc(-c2ccc(CNCCc3cn[nH]c3)cc2)c1-c1nnn[nH]1 [Example 385, 4′-({[2-(1H-pyrazol-4-yl)ethyl]amino}methyl)-2-(1H-tetrazol-5-yl)biphenyl-3-sulfonamide]	12.5	499	357	1.563	50	6.25	–
NS(=O)(=O)c1cccc(-c2ccc(CN3CCNC(=O)C3)cc2)c1-c1nnn[nH]1 [Example 386, 4′-[(3-oxopiperazin-1-yl)methyl]-2-(1H-tetrazol-5-yl)biphenyl-3-sulfonamide]	3.23	32	120	6.25	>200	1.563	–
NS(=O)(=O)c1cccc(-c2ccc(CN3C[C@H](O)C[C@H]3CO)cc2)c1-c1nnn[nH]1 [Example 387, 4′-{[(2S,4R)-4-hydroxy-2-(hydroxymethyl)pyrrolidin-1-yl]methyl}-2-(1H-tetrazol-5-yl)biphenyl-3-sulfonamide]	10.6	145	445	2.344	100	3.125	–
NS(=O)(=O)c1cccc(-c2ccc(CNC3CCNC3=O)cc2)c1-c1nnn[nH]1 (stereo not drawn) [Example 388, 4′-{[(2-oxopyrrolidin-3-yl)amino]methyl}-2-(1H-tetrazol-5-yl)biphenyl-3-sulfonamide]	4.28	48.6	–	1.563	200	1.563	273
NS(=O)(=O)c1cccc(-c2ccc(CNCCc3cc[nH]n3)cc2)c1-c1nnn[nH]1 [Example 389, 4′-({[2-(1H-pyrazol-3-yl)ethyl]amino}methyl)-2-(1H-tetrazol-5-yl)biphenyl-3-sulfonamide]	3.33	64	146	1.563	75	2.344	–
NS(=O)(=O)c1cccc(-c2ccc(CNCCO)cc2)c1-c1nnn[nH]1 [Example 390, 4′-{[(2-hydroxyethyl)amino]methyl}-2-(1H-tetrazol-5-yl)biphenyl-3-sulfonamide]	12.2	483	222	0.7813	62.5	6.25	–
NS(=O)(=O)c1cccc(-c2ccc(CN3CC[C@H](CO)C3)cc2)c1-c1nnn[nH]1 [Example 392, 4′-{[(3S)-3-(hydroxymethyl)pyrrolidin-l-yl]methyl}-2-(1H-tetrazol-5-yl)biphenyl-3-sulfonamide]	7.88	394	–	2.344	75	3.125	455
NS(=O)(=O)c1cccc(-c2ccc(CN3CCC(CCO)C3)cc2)c1-c1nnn[nH]1 (stereo not drawn) [Example 393, 4′-{[3-(2-hydroxyethyl)pyrrolidin-1-yl]methyl}-2-(1H-tetrazol-5-yl)biphenyl-3-sulfonamide]	10.8	338	509	1.563	200	4.688	–
NS(=O)(=O)c1cccc(-c2ccc(CN3CCC(O)CC3)cc2)c1-c1nnn[nH]1 [Example 394, 4′-[(4-hydroxypiperidin-1-yl)methyl]-2-(1H-tetrazol-5-yl)biphenyl-3-sulfonamide]	11.3	195	658	2.344	>200	3.125	–
NS(=O)(=O)c1cccc(-c2ccc(CN3CCCC3CO)cc2)c1-c1nnn[nH]1 (stereo not drawn) [Example 395, 4′-{[2-(hydroxymethyl)pyrrolidin-1-yl]methyl}-2-(1H-tetrazol-5-yl)biphenyl-3-sulfonamide]	14.4	226	343	1.563	100	3.125	–
NS(=O)(=O)c1cccc(-c2ccc(CN3CC(O)C(F)C3)cc2)c1-c1nnn[nH]1 (stereo not drawn) [Example 396, 4′-[(3-fluoro-4-hydroxypyrrolidin-1-yl)methyl]-2-(1H-tetrazol-5-yl)biphenyl-3-sulfonamide]	3.21	22.4	181	1.172	100	1.172	–
Nc1nccc2ccc(-c3cccc(S(N)(=O)=O)c3-c3nnn[nH]3)cc12 [Example 400, 3-(1-aminoisoquinolin-7-yl)-2-(1H-tetrazol-5-yl)benzenesulfonamide]	1.64	166	–	0.25	6.25	12.5	18.4
Nc1ccnc2ccc(-c3cccc(S(N)(=O)=O)c3-c3nnn[nH]3)cc12 [Example 401, 3-(4-amino-6-quinolyl)-2-(1H-tetrazol-5-yl)benzenesulfonamide]	7.31	646	–	0.09375	0.8906	6.25	7.57
Nc1cnc(-c2cccc(S(N)(=O)=O)c2-c2nnn[nH]2)cn1 [Example 402, 3-(5-aminopyrazin-2-yl)-2-(1H-tetrazol-5-yl)benzenesulfonamide]	8.09	389	349	0.3906	25	6.25	–
Nc1ccc2cc(-c3cccc(S(N)(=O)=O)c3-c3nnn[nH]3)ccc2n1 [Example 403, 3-(2-amino-6-quinolyl)-2-(1H-tetrazol-5-yl)benzenesulfonamide]	2.34	184	15.4	0.125	6.25	4.688	–
